Among the data in ChEMBL document CHEMBL4706534, “1,2,3-Triazole-containing hybrids with potential antibacterial activity against methicillin-resistant Staphylococcus aureus (MRSA)” (Eur J Med Chem, 2020) are MIC and Ratio values, retold here.

SMILES strings stand for the structures. ≈ marks a conversion by molar mass, not a printed value. Some results are limits rather than exact numbers.

Common to all, as to type: functional
Assay [1] has as its system Staphylococcus aureus. Put plainly: Antibacterial activity against Methicillin-resistant Staphylococcus aureus incubated for 24 hrs by broth microdilution method.
Assay [2] relates to Staphylococcus aureus. Put plainly: Antibacterial activity against Methicillin-resistant Staphylococcus aureus USA100 by CLSI-based microdilution method.
The test system of assay [3] is Staphylococcus aureus. Put plainly: Antibacterial activity against Methicillin-resistant Staphylococcus aureus USA600 by CLSI-based microdilution method.
Assay [4] concerns Staphylococcus aureus. Put plainly: Antibacterial activity against Methicillin-resistant Staphylococcus aureus USA200 by CLSI-based microdilution method.
Assay [5] concerns Staphylococcus aureus. Put plainly: Antibacterial activity against Methicillin-resistant Staphylococcus aureus USA300 by CLSI-based microdilution method.
In assay [6] the test system is Staphylococcus aureus. Put plainly: Antibacterial activity against wild type Methicillin-resistant Staphylococcus aureus by CLSI-based microdilution method.
Assay [7] concerns Staphylococcus aureus. Put plainly: Antibacterial activity against Methicillin-resistant Staphylococcus aureus ATCC 510019 incubated for 18 to 24 hrs by CLSI-based microbroth dilution method. To be noted: time 18-24 hrs.
Assay [8] deals with Staphylococcus aureus. Put plainly: Antibacterial activity against Methicillin-resistant Staphylococcus aureus ATCC 51345 incubated for 18 to 24 hrs by CLSI-based microbroth dilution method. To be noted: time 18-24 hrs.
For assay [9], the system named is Staphylococcus aureus. Put plainly: Antibacterial activity against Methicillin-resistant Staphylococcus aureus ATCC 43300 incubated for 18 to 24 hrs by CLSI-based microbroth dilution method. To be noted: time 18-24 hrs.
In assay [10] the test system is Staphylococcus aureus. Put plainly: Antibacterial activity against Methicillin-resistant Staphylococcus aureus ATCC 405055 incubated for 18 to 24 hrs by CLSI-based microbroth dilution method. To be noted: time 18-24 hrs.
Assay [11] concerns Staphylococcus aureus. Put plainly: Antibacterial activity against Methicillin-resistant Staphylococcus aureus ATCC 51033 incubated for 18 to 24 hrs by CLSI-based microbroth dilution method. To be noted: time 18-24 hrs.
In assay [12] the test system is Staphylococcus aureus. Put plainly: Antibacterial activity against Methicillin-resistant Staphylococcus aureus ATCC 52056 incubated for 18 to 24 hrs by CLSI-based microbroth dilution method. As to conditions: time 18-24 hrs.
In assay [13] the test system is Staphylococcus aureus. Put plainly: Antibacterial activity against Methicillin-resistant Staphylococcus aureus ATCC 52351-2 incubated for 18 to 24 hrs by CLSI-based microbroth dilution method. To be noted: time 18-24 hrs.
Assay [14] relates to Staphylococcus aureus. Put plainly: Antibacterial activity against Methicillin-resistant Staphylococcus aureus ATCC 60202 incubated for 18 to 24 hrs by CLSI-based microbroth dilution method. To be noted: time 18-24 hrs.
Assay [15] has as its system Staphylococcus aureus. Put plainly: Antibacterial activity against Methicillin-resistant Staphylococcus aureus ATCC 51599-2 incubated for 18 to 24 hrs by CLSI-based microbroth dilution method. To be noted: time 18-24 hrs.
Assay [16] relates to Enterococcus. Put plainly: Antibacterial activity against Vancomycin-resistant enterococcus 2 incubated for 16 hrs by agar dilution method.
Assay [17] relates to Enterococcus. Put plainly: Antibacterial activity against Vancomycin-resistant enterococcus 1 incubated for 16 hrs by agar dilution method.
The test system of assay [18] is Staphylococcus aureus. Put plainly: Antibacterial activity against methicillin-susceptible Staphylococcus aureus ATCC 25923 incubated for 18 hrs.
The test system of assay [19] is Staphylococcus aureus. Put plainly: Potency index, ratio of linezolid MIC to compound MIC for antibacterial activity against methicillin-resistant Staphylococcus aureus ATCC 33591.
For assay [20], the system named is Staphylococcus aureus. Put plainly: Antibacterial activity against methicillin-resistant Staphylococcus aureus ATCC 33591 incubated for 18 hrs.
Assay [21] concerns Staphylococcus aureus. Put plainly: Antibacterial activity against Methicillin-resistant Staphylococcus aureus 1 incubated for 16 hrs by agar dilution method.
Assay [22] concerns Staphylococcus aureus. Put plainly: Antibacterial activity against Methicillin-resistant Staphylococcus aureus 2 incubated for 16 hrs by agar dilution method.

As for `Cc1ccc(-n2cc(Cn3c4ccccc4c(=O)c4cc(C)ccc43)nn2)cc1`, inhibition of growth against Staphylococcus aureus [1] (MIC) required 19.6 µg/mL (≈ 51.5 µM).

Take `O=C(N[C@H](CO)[C@H](O)c1ccc([N+](=O)[O-])cc1)C(Cl)Cl` [CHLORAMPHENICOL]: 11.6 µg/mL (≈ 35.9 µM) was the least that counted as inhibitory with Staphylococcus aureus [1] (MIC).

For the compound `NC[C@@H]1O[C@H](O[C@H]2[C@@H](O)[C@H](O[C@@H]3[C@@H](O)[C@H](N)C[C@H](N)[C@H]3O[C@H]3O[C@H](CN)[C@@H](O)[C@H](O)[C@H]3N)O[C@@H]2Cn2cc(COCCCCCCCCOCc3cn(C[C@H]4O[C@@H](O[C@@H]5[C@@H](O)[C@H](N)C[C@H](N)[C@H]5O[C@H]5O[C@H](CN)[C@@H](O)[C@H](O)[C@H]5N)[C@H](O)[C@@H]4O[C@H]4O[C@@H](CN)[C@@H](O)[C@H](O)[C@H]4N)nn3)nn2)[C@H](N)[C@@H](O)[C@@H]1O`, the MIC against Staphylococcus aureus [2], in the assay with Staphylococcus aureus [3], in the assay with Staphylococcus aureus [4], against Staphylococcus aureus [5] and in the assay with Staphylococcus aureus [6] was 25 µg/mL (≈ 16.6 µM) in each case.

Regarding `Cc1nc(C)c(COc2ccc(N3C[C@H](Cn4ccnn4)OC3=O)cc2)nc1C`, the MIC against Staphylococcus aureus [7], with Staphylococcus aureus [8], against Staphylococcus aureus [9], in the assay on Staphylococcus aureus [10], against Staphylococcus aureus [11] and against Staphylococcus aureus [12] was 4 µg/mL (≈ 10.1 µM) in each case. The MIC against Staphylococcus aureus [13], against Staphylococcus aureus [14] and with Staphylococcus aureus [15] was 4 µg/mL (≈ 10.1 µM) in each case.

On to `NC[C@@H]1O[C@H](O[C@H]2[C@@H](O)[C@H](O[C@@H]3[C@@H](O)[C@H](N)C[C@H](N)[C@H]3O[C@H]3O[C@H](CN)[C@@H](O)[C@H](O)[C@H]3N)O[C@@H]2CO)[C@H](N)[C@@H](O)[C@@H]1O` [FRAMYCETIN], for which the MIC in the assay on Staphylococcus aureus [2], against Staphylococcus aureus [3], against Staphylococcus aureus [4], in the assay with Staphylococcus aureus [5] and in the assay with Staphylococcus aureus [6] was greater than 50 µg/mL each time.

Regarding `CC(C)C[C@@H](N)C(=O)N[C@H]1C(=O)N[C@@H](CC(N)=O)C(=O)N[C@H]2C(=O)N[C@H]3C(=O)N[C@H](C(=O)N[C@H](C(=O)O)c4cc(O)cc(O)c4-c4cc3ccc4O)[C@H](O)c3ccc(c(Cl)c3)Oc3cc2cc(c3O[C@@H]2O[C@H](CO)[C@@H](O)[C@H](O)[C@H]2O[C@H]2C[C@](C)(N)[C@H](O)[C@H](C)O2)Oc2ccc(cc2Cl)[C@H]1O`, the MIC against Enterococcus [16] and with Enterococcus [17] was greater than 50 µg/mL throughout.

For the compound `CC(=O)NC[C@H]1CN(c2ccc(-n3cc(-c4ccncn4)nn3)c(F)c2)C(=O)O1`, the MIC came out at 2 µg/mL (≈ 5.03 µM) against Staphylococcus aureus [18] and 0.5 µg/mL (≈ 1.26 µM) in the assay with Staphylococcus aureus [20]. The Ratio in the assay with Staphylococcus aureus [19] is 4.

Regarding `CC(C)C[C@H](C(=O)N[C@@H]1Cc2ccc(c(Cl)c2)Oc2cc3cc(c2O[C@@H]2O[C@H](CO)[C@@H](O)[C@H](O)[C@H]2O[C@H]2C[C@](C)(NCCCCCCCc4ccccc4)[C@H](O)[C@H](C)O2)Oc2ccc(cc2Cl)[C@@H](O)[C@@H]2NC(=O)[C@H](NC(=O)[C@@H]3NC(=O)[C@H](CC(=O)O)NC1=O)c1ccc(O)c(c1)-c1c(O)cc(O)cc1[C@H](C(=O)O)NC2=O)n1cc(COCCOCCOCc2cn([C@H](CC(C)C)C(=O)N[C@@H]3Cc4ccc(c(Cl)c4)Oc4cc5cc(c4O[C@@H]4O[C@H](CO)[C@@H](O)[C@H](O)[C@H]4O[C@H]4C[C@](C)(NCCCCCCCc6ccccc6)[C@H](O)[C@H](C)O4)Oc4ccc(cc4Cl)[C@@H](O)[C@@H]4NC(=O)[C@H](NC(=O)[C@@H]5NC(=O)[C@H](CC(=O)O)NC3=O)c3ccc(O)c(c3)-c3c(O)cc(O)cc3[C@H](C(=O)O)NC4=O)nn2)nn1`, the MIC in the assay with Enterococcus [16] was found to be 12.5 µg/mL (≈ 3.65 µM); with Staphylococcus aureus [21] it was 6.25 µg/mL (≈ 1.83 µM); in the assay on Enterococcus [17], 25 µg/mL (≈ 7.3 µM); with Staphylococcus aureus [22], 12.5 µg/mL (≈ 3.65 µM).
